{
  "source": "patent US7538116B2",
  "about": "“Treatment of sexual disorders” (priority 2003, dated 2009)",
  "format_in_all_cases": "in vivo, human",
  "key": {"[1]": {"system": "subjects with depression", "assay": "DISF interview, short-term investigation in depression (134004)", "settings": "trial 134004; for mean change from baseline in total score (DISF interview): short-term treatment", "description": "(§1) Sexual dysfunction and recovery were measured with the Derogatis Interview for Sexual Functioning (DISF/DISF-SR). This provides for a coordinated set of brief matched instruments designed to provide an estimate of the quality of an individual's current sexual functioning. The DISF is a semi-structured interview comprising 25 items and reflecting quality of sexual functioning in a multi-domain format. The DISF-SR is a matching Self-Report (SR) inventory designed to accomplish the same goal in a patient self-report mode. There are gender specific male and female versions of both the DISF and the DISF-SR. All instruments in the DISF series are designed to be interpreted at three distinct levels: Discrete Items, Functional Domains, and aggregate summary (Total Score). The Discrete Items are arranged into five primary Functional Domains of sexual functioning: (I) sexual cognition/fantasy, (II) sexual arousal, (III) sexual behavior/experience, (IV) orgasm, and (V) sexual drive/relationship. Both the DISF and the DISF-SR take approximately 12 to 15 minutes to administer. Internal consistency reliabilities for domain scores of the DISF-SR range from 0.70 to 0.77, while test-retest stability coefficients are 0.80 to 0.90 and 0.86 for the Total Score. Inter-rater reliability estimates for the DISF interview ranged from 0.84 to 0.92 for domain scores, and 0.91 for the Total. […] The DISF/DISF-SR is currently available in 10 foreign languages.\n(§2) The Derogatis Interview was used, providing information on the quality of the subject's sexual functioning in quantitative terms. Only subjects who were willing to discuss their sexual functioning with the investigator were to be included. In addition, the scores from the interview, as well as demographic and medical history information, were to be used by the investigator to determine whether or not the subject reached the threshold of disorder (absent or present) for the primary criteria for the DSM-IV Sexual Disorders.\nDISF interview data from the analysis of another investigation of gepirone in depression (Organon internal reference number: 134004) were analyzed. […] Upon analysis of change from baseline in total score only for each domain for females and Domains I to III for males, similar conclusions for subjects who received gepirone and fluoxetine could be drawn."}, "[2]": {"system": "subjects from trial 134004", "assay": "DISF interview, long-term trial 134502 (continued or switched therapy)", "description": "as §1, §2\nIn another study (Organon's Internal reference number 134501), all subjects received gepirone ER (40 mg) after having completed a trial wherein subjects were randomized to receive either gepirone ER or placebo. DISF-SR data from the analysis of this long-term trial were analyzed. For females, data were available for 23 subjects who received gepirone in a previous trial (Organon internal reference: 134001 or 134002) previously (henceforth referred to as gepirone in this paragraph) and 23 subjects who received placebo previously (henceforth referred to as placebo in this paragraph). […] For males, data were available for 17 subjects who received gepirone and 17 subjects who received placebo. […] DISF Interview data from the analysis of another long-term trial (Organon internal reference: 134502) were analyzed. In this trial subjects from a previous trial (Organon internal reference:134004) were continued on therapy or were switched to a new drug, depending on antidepressant response."}, "[3]": {"system": "subjects from trials 134001 or 134002", "assay": "DISF-SR, long-term trial 134501 (all subjects on gepirone ER)", "settings": "then gepirone ER 40 mg", "description": "as §1, §2\nIn another study (Organon's Internal reference number 134501), all subjects received gepirone ER (40 mg) after having completed a trial wherein subjects were randomized to receive either gepirone ER or placebo. DISF-SR data from the analysis of this long-term trial were analyzed. For females, data were available for 23 subjects who received gepirone in a previous trial (Organon internal reference: 134001 or 134002) previously (henceforth referred to as gepirone in this paragraph) and 23 subjects who received placebo previously (henceforth referred to as placebo in this paragraph). […] DISF Interview data from the analysis of another long-term trial (Organon internal reference: 134502) were analyzed. […]"}, "[4]": {"system": "depressed patients", "assay": "Specific case descriptions, long-term open-label study", "source_text": "In another trial patients were enrolled in a long-term open-label study of depressed patients. […] It was observed that most of the reports were from patients in long-term therapy who had recovered from their depression weeks to months before making the reports. These reports provided incidental observations on both men and women of various ages that sexual desire had increased to a level not previously experienced by the subject and which was quite pleasing to them. It appeared that these patients were no longer depressed and now had the added benefit that sexual function, sexual relationships, and quality of life were improved beyond that experienced by patients merely recovering from depression. […] They were pursuing a dating life for the first time in years. […] They were not depressed anymore and the sexual effects continued to increase. […] They were successful and carried out a satisfying sexual relationship for the fist time since the death of their spouse. They were reported to be “giddy” over the effects of gepirone in this domain. Their quality of life was judged as much improved by the investigator."}, "[5]": {"system": "subjects in remission from depression", "assay": "DISF total score, longer-term trial 28709 (randomized after remission)", "settings": "for mean change from baseline in total score (DISF): gepirone HCl ER 40 mg, randomized after remission", "description": "as §1\nThe Derogatis Interview was used, providing information on the quality of the subject's sexual functioning in quantitative terms. Only subjects who were willing to discuss their sexual functioning with the investigator were to be included. In addition, the scores from the interview, as well as demographic and medical history information, were to be used by the investigator to determine whether or not the subject reached the threshold of disorder (absent or present) for the primary criteria for the DSM-IV Sexual Disorders. […]"}, "[6]": {"system": "depressed outpatients", "assay": "DISF-SR, combined analysis of two short-term investigations (134001 and 134002)", "settings": "short-term treatment (2 months), 134001 and 134002 combined", "description": "Sexual dysfunction and recovery were measured with the Derogatis Interview for Sexual Functioning (DISF/DISF-SR). This provides for a coordinated set of brief matched instruments designed to provide an estimate of the quality of an individual's current sexual functioning. The DISF is a semi-structured interview comprising 25 items and reflecting quality of sexual functioning in a multi-domain format. The DISF-SR is a matching Self-Report (SR) inventory designed to accomplish the same goal in a patient self-report mode. There are gender specific male and female versions of both the DISF and the DISF-SR. All instruments in the DISF series are designed to be interpreted at three distinct levels: Discrete Items, Functional Domains, and aggregate summary (Total Score). The Discrete Items are arranged into five primary Functional Domains of sexual functioning: (I) sexual cognition/fantasy, (II) sexual arousal, (III) sexual behavior/experience, (IV) orgasm, and (V) sexual drive/relationship. Both the DISF and the DISF-SR take approximately 12 to 15 minutes to administer. […]\nThe Derogatis Interview was used, providing information on the quality of the subject's sexual functioning in quantitative terms. […]\nDISF-SR data from the combined analysis of two investigations of gepirone in depressed outpatients (Organon internal reference: 134001 and 134002) were analyzed. […]"}, "[7]": {"settings": "males, same treatment throughout short-term (134004) and long-term (134502) trials"}},
  "data": [
    {"smiles": "CNCCC(Oc1ccc(C(F)(F)F)cc1)c1ccccc1", "note": "(centres unmarked) [fluoxetine]", "values": [
      {"measurement": "mean change from baseline in total score (DISF interview)", "setting": "[1]; females", "result": "−3.5"},
      {"measurement": "mean change from baseline in total score (DISF interview)", "setting": "[1]; males", "result": "−4.4"},
      {"measurement": "mean change from baseline in total score (DISF interview)", "setting": "[2]; females, switched from gepirone to fluoxetine, trial 134502", "result": "+0.9"},
      {"measurement": "mean change from baseline in total score (DISF interview)", "setting": "[2]; [7]", "result": "−1.2"},
      {"measurement": "mean change from baseline in total score (DISF interview)", "setting": "[2]; males, switched from gepirone to fluoxetine, trial 134502", "result": "−5.8"}
    ]},
    {"smiles": "CC1(C)CC(=O)N(CCCCN2CCN(c3ncccn3)CC2)C(=O)C1", "note": "[gepirone, 4,4-dimethyl-1-[4-[4-(2-pyrimidinyl)-1-piperazinyl]butyl]-2,6-piperidinedione]", "values": [
      {"measurement": "mean change from baseline in total score (DISF-SR)", "setting": "[3]; females, gepirone in previous trial", "result": "+11.2"},
      {"measurement": "mean change from baseline in total score (DISF-SR)", "setting": "[3]; females, placebo in previous trial", "result": "+3.3"},
      {"measurement": "mean change from baseline in total score (DISF-SR)", "setting": "[3]; males, gepirone in previous trial", "result": "+12.3"},
      {"measurement": "mean change from baseline in total score (DISF-SR)", "setting": "[3]; males, placebo in previous trial", "result": "−4.4"},
      {"measurement": "quality of life judged by the investigator (case report)", "setting": "[4]; patient", "result": "much improved"},
      {"measurement": "orgasms (case report)", "setting": "[4]; person on open-label therapy, no longer depressed", "result": "more frequent and more intense"},
      {"measurement": "libido (case report)", "setting": "[4]; person, on gepirone for nearly a year", "result": "libido was up"},
      {"measurement": "mean change from baseline in total score (DISF interview)", "setting": "[1]; females", "result": "+4.3"},
      {"measurement": "mean change from baseline in total score (DISF interview)", "setting": "[1]; males", "result": 0},
      {"measurement": "change from baseline in total score for Domains IV (orgasm) and V (sexual drive/relationship)", "setting": "[1]; males", "result": "improvement in total score from baseline"},
      {"measurement": "mean change from baseline in total score (DISF)", "setting": "[5]; females", "result": "+5.2"},
      {"measurement": "Domains IV (orgasm) and V (sexual drive/relationship), total score from baseline", "setting": "[5]; males", "result": "improvement in total score from baseline"},
      {"measurement": "mean change from baseline in total score (DISF)", "setting": "[5]; males", "result": "+18.7"},
      {"measurement": "mean change from baseline in total score (DISF-SR)", "setting": "[6]; females", "result": "+8.0"},
      {"measurement": "mean change from baseline in total score (DISF-SR)", "setting": "[6]; males", "result": "+13.7"},
      {"measurement": "mean change from baseline in total score (DISF interview)", "setting": "[2]; females, same treatment throughout short-term (134004) and long-term (134502) trials", "result": "+18.1"},
      {"measurement": "mean change from baseline in total score (DISF interview)", "setting": "[2]; females, switched from fluoxetine to gepirone, trial 134502", "result": "+2.3"},
      {"measurement": "mean change from baseline in total score (DISF interview)", "setting": "[2]; females, switched from placebo to gepirone, trial 134502", "result": "+4.2"},
      {"measurement": "mean change from baseline in total score (DISF interview)", "setting": "[2]; [7]", "result": "+5.5"},
      {"measurement": "mean change from baseline in total score (DISF interview)", "setting": "[2]; males, switched from fluoxetine to gepirone, trial 134502", "result": "+3.3"},
      {"measurement": "mean change from baseline in total score (DISF interview)", "setting": "[2]; males, switched from placebo to gepirone, trial 134502", "result": "+7.1"}
    ]}
  ]
}
